Reference: PMC3511013, “Dimerization of a cell-penetrating peptide leads to enhanced cellular uptake and drug delivery” (Beilstein Journal of Organic Chemistry, 2012)
Bridge positions count the residues as written; N and C are the ends. Ends that are not written are not given here. Peptide text beside a SMILES is read from it. I, II: the chains in the order shown. * marks the point of attachment. Chlorambucil = O=C(CCCc1ccc(N(CCCl)CCCl)cc1)*

Tests used:
HEK-293 cells [1] = experiment: Fluorescence microscopic uptake study; assay type: cell-based, human; settings: unfixed HEK-293, 1 µM CF-labeled peptide, 30 min, fluorescence microscopy
Protocol: (§1) For fluorescence microscopic uptake studies, cells were seeded in an 8-well ibidi plate and grown to 60–70% confluence. The cells were then incubated with CF-labeled peptides in OptiMEM for 30 min at 37 °C. Ten minutes prior to the end of incubation, the nuclei were stained by addition of Hoechst33342 nuclear dye. Finally, the solution was removed, and the cells were treated with a 150 µM trypan blue solution for 0.5 min. After washing twice with PBS, images were taken by using a Zeiss Observer Z1 fluorescence microscope equipped with an ApoTome unit using a 63× oil immersion objective.

HT-29 cells [2] = experiment: Flow cytometric cellular uptake of carboxyfluorescein-labeled peptides; assay type: cell-based, human; settings: 1 h, flow cytometry; for cellular uptake at 1 µM: HT-29, CF-labeled peptide 1 µM
Protocol: (§2) For peptide-uptake studies by flow cytometry, cells were seeded in a 48-well plate and grown to 60–70% confluence. After incubation at 37 °C for 1 h with 5(6)-carboxyfluorescein-labeled peptides in OptiMEM, the cells were treated with 150 µM trypan blue for 0.5 min to quench extracellular fluorescence and washed twice with PBS, trypsinized and resuspended in standard cell-culture medium. Analyses were performed on a Partec CyFlow ML flow cytometer. Cellular autofluorescence was subtracted. The experiments were carried out with n (number of experiments) = 2 in duplicate.

HEK-293 cells [3] = experiment: as above; assay type: cell-based, human; settings: 1 h, flow cytometry; for cellular uptake at 1 µM: HEK-293, CF-labeled peptide 1 µM
Protocol: as §2

MCF-7 cells [4] = experiment: as above; assay type: cell-based, human; settings: 1 h, flow cytometry; for cellular uptake at 1 µM: MCF-7, CF-labeled peptide 1 µM
Protocol: as §2

HT-29 cells [5] = experiment: LDH release (membrane integrity) assay; settings: HT-29, 1 h incubation
Protocol: (§4) For the membrane leakage assay utilizing the Promega CytoTox-One kit, cells were seeded in a 96-well plate, grown to subconfluency, and incubated with the substances at different concentrations for 1 h in the presence of serum under standard growth conditions. Afterwards, the assay was conducted according to the manufacturer’s protocol including the provided cell lysis positive control. Measurement was performed fluorimetrically at 595 nm (λex = 550 nm) on a Tecan SpectraFluor Plus plate reader. The negative control served as blank value, and data were normalized to the positive control. Experiments were carried out with n = 2 in triplicate.

MCF-7 cells [6] = experiment: LDH release (membrane integrity) assay
Protocol: as §4

[7] = system: human adipose tissue-derived stem cells (hADSC); experiment: Fluorescence microscopic uptake study in primary cells; assay type: cell-based; settings: 1 h
Protocol: as §1, with “The cells were then incubated with CF-labeled peptides in OptiMEM for 30 min at 37 °C.” left out

HEK-293 cells [8] = experiment: LDH release (membrane integrity) assay; assay type: cell-based, human; settings: HEK-293, 1 h incubation, elevated concentrations, CytoTox-One, n = 2 in triplicate
Protocol: Experiments were carried out with n = 2 in triplicate.

MCF-7 cells [9] = experiment: Resazurin-based cell viability assay; settings: n = 2 in triplicate; for IC50: read-out: IC50 MCF-7, resazurin-based cell viability, 24 h incubation, in the presence of serum, nonlinear regression, ± spread
Protocol: Cytotoxicity was determined by means of a resazurin-based cell-viability assay. Cells were seeded in a 96-well plate, grown to subconfluency and incubated with the substances at different concentrations for 24 h in the presence of serum under standard growth conditions. For the positive control, cells were treated with 70% ethanol for 10 min. After washing, the cell viability was determined relative to untreated cells by using the In Vitro Toxicology Assay Kit from Sigma-Aldrich according to the manufacturer’s protocol. Measurement was performed fluorimetrically at 595 nm (λex = 550 nm) on a Tecan SpectraFluor Plus plate reader. Untreated cells were set to 100%. IC50 values were calculated by using nonlinear regression (sigmoidal dose–response) with GraphPad Prism. Experiments were carried out with n = 2 in triplicate.

HT-29 cells [10] = experiment: Resazurin-based cell viability assay; parameters: species or system human; settings: n = 2 in triplicate; for IC50: resazurin-based cell viability, 24 h incubation, in the presence of serum, nonlinear regression, ± spread
Protocol: (§3) Untreated cells were set to 100%. […] Experiments were carried out with n = 2 in triplicate.

HEK-293 cells [11] = experiment: Resazurin-based cell viability assay; parameters: species or system human; settings: HEK-293, 24 h, concentrations up to 100 µM, n = 2 in triplicate
Protocol: as §3

HT-29 cells [12] = settings: cited from earlier work
Protocol: (§5) The effect of the dimeric sC18 on the survival of HEK-293, HT-29 and MCF-7 cells was determined by means of a resazurin-based cell viability assay.

MCF-7 cells [13] = settings: cited from earlier work
Protocol: as §5

[14] = 25 µM CF-labeled peptide, fluorescence microscopy

Compound: CC[C@H](C)[C@H](NC(=O)[C@H](CCCCN)NC(=O)[C@H](CC(N)=O)NC(=O)[C@H](CCCNC(=N)N)NC(=O)[C@H](Cc1ccccc1)NC(=O)[C@H](CCCCN)NC(=O)[C@H](CCCNC(=N)N)NC(=O)[C@H](CC(C)C)NC(=O)[C@H](CCCNC(=N)N)NC(=O)[C@H](CCCCNC(=O)[C@H](CCCCN)NC(=O)[C@H](CCC(=O)O)NC(=O)[C@H](CCCCN)NC(=O)[C@@H](NC(=O)[C@H](CCCCN)NC(=O)[C@H](CC(N)=O)NC(=O)[C@H](CCCNC(=N)N)NC(=O)[C@H](Cc1ccccc1)NC(=O)[C@H](CCCCN)NC(=O)[C@H](CCCNC(=N)N)NC(=O)[C@H](CC(C)C)NC(=O)[C@H](CCCNC(=N)N)NC(=O)[C@H](CCCCN)NC(=O)[C@H](CCCNC(=N)N)NC(=O)[C@H](CC(C)C)NC(=O)CN)[C@@H](C)CC)NC(=O)[C@H](CCCNC(=N)N)NC(=O)[C@H](CC(C)C)NC(=O)CN)C(=O)N[C@@H](CCCCN)C(=O)N[C@@H](CCC(=O)O)C(=O)N[C@@H](CCCCN)C(N)=O [(sC18)2] (I: H-GLRKRLRKFRNKIKEK / II: H-GLRKRLRKFRNKIKEK-NH2; amide I:C-II:4)
- intracellular distribution pattern (HEK-293 cells [1]): punctate uptake pattern
- amount taken up by HT-29 cells compared to the other cell lines (HT-29 cells [2]; CF-labeled peptide 10 µM, versus HEK-293 and MCF-7): less than half
- cellular uptake at 1 µM (HT-29 cells [2]; 37 °C, OptiMEM): significant uptake
- increase of intracellular fluorescence versus sC18 (HT-29 cells [2]; HT-29, CF-labeled peptides, 37 °C, OptiMEM, trypan blue quench, n = 2 in duplicate): ≥ 10 fold
- cellular uptake at 1 µM (HEK-293 cells [3]; 37 °C, OptiMEM): significant uptake
- increase of intracellular fluorescence versus sC18 (HEK-293 cells [3]; HEK-293, CF-labeled peptides, 37 °C, OptiMEM, trypan blue quench, n = 2 in duplicate): ≥ 10 fold
- uptake rate at 1 µM compared to sC18 at 10 µM (HEK-293 cells [3]; HEK-293, CF-labeled, p ≤ 0.05): significantly higher
- cellular uptake at 1 µM (MCF-7 cells [4]; 37 °C, OptiMEM): significant uptake
- increase of intracellular fluorescence versus sC18 (MCF-7 cells [4]; MCF-7, CF-labeled peptides, 37 °C, OptiMEM, trypan blue quench, n = 2 in duplicate): ≥ 10 fold
- uptake rate at 1 µM compared to sC18 at 10 µM (MCF-7 cells [4]; MCF-7, CF-labeled, p ≤ 0.05): significantly higher
- extracellular LDH levels (HT-29 cells [5]; in the presence of serum, CytoTox-One, compared to MCF-7): much smaller
- extracellular LDH (membrane destabilization) (MCF-7 cells [6]; MCF-7, 30 µM, 1 h incubation, in the presence of serum, CytoTox-One): high levels of extracellular LDH
- intracellular distribution in primary cells [7, 14]: evenly distributed throughout the cells
- uptake into primary cells [7, 14]: bright intracellular fluorescence
- cytotoxicity judged by cell morphology ([7]; 25 µM, microscopy): no cytotoxicity
- membrane leakage (LDH release) (HEK-293 cells [8]): only show a little membrane leakage
- cell viability (MCF-7 cells [9]; MCF-7, 24 h, resazurin, different concentrations up to 100 µM (Figure 3)): steady decrease of cell viability
- cell viability (HT-29 cells [10]; HT-29, 24 h, resazurin, different concentrations up to 100 µM (Figure 3)): steady decrease of cell viability
- cell viability (HEK-293 cells [11]): remained unharmed

Compound: CC[C@H](C)[C@H](NC(=O)[C@H](CCCCN)NC(=O)[C@H](CC(N)=O)NC(=O)[C@H](CCCNC(=N)N)NC(=O)[C@H](Cc1ccccc1)NC(=O)[C@H](CCCCN)NC(=O)[C@H](CCCNC(=N)N)NC(=O)[C@H](CC(C)C)NC(=O)[C@H](CCCNC(=N)N)NC(=O)[C@H](CCCCNC(=O)[C@H](CCCCN)NC(=O)[C@H](CCC(=O)O)NC(=O)[C@H](CCCCN)NC(=O)[C@@H](NC(=O)[C@H](CCCCN)NC(=O)[C@H](CC(N)=O)NC(=O)[C@H](CCCNC(=N)N)NC(=O)[C@H](Cc1ccccc1)NC(=O)[C@H](CCCCN)NC(=O)[C@H](CCCNC(=N)N)NC(=O)[C@H](CC(C)C)NC(=O)[C@H](CCCNC(=N)N)NC(=O)[C@H](CCCCN)NC(=O)[C@H](CCCNC(=N)N)NC(=O)[C@H](CC(C)C)NC(=O)CNC(=O)[C@H](CC(C)C)NC(=O)[C@H](Cc1ccccc1)NC(=O)CNC(=O)CCCc1ccc(N(CCCl)CCCl)cc1)[C@@H](C)CC)NC(=O)[C@H](CCCNC(=N)N)NC(=O)[C@H](CC(C)C)NC(=O)CNC(=O)[C@H](CC(C)C)NC(=O)[C@H](Cc1ccccc1)NC(=O)CNC(=O)CCCc1ccc(N(CCCl)CCCl)cc1)C(=O)N[C@@H](CCCCN)C(=O)N[C@@H](CCC(=O)O)C(=O)N[C@@H](CCCCN)C(N)=O [compound 3] (I: Chlorambucil-GFLGLRKRLRKFRNKIKEK / II: Chlorambucil-GFLGLRKRLRKFRNKIKEK-NH2; amide I:C-II:7)
- LDH release compared to the cymantrene conjugates (HT-29 cells [5]; different concentrations (Figure 9)): equal amount of LDH release
- LDH release compared to the cymantrene conjugates (MCF-7 cells [6]; MCF-7, 1 h incubation, different concentrations (Figure 9)): equal amount of LDH release
- IC50 (MCF-7 cells [9]): 8.9 ± 0.3 µM
- IC50 (HT-29 cells [10]): 26 ± 1.2 µM

Compound: GLRKRLRKFRNKIKEK-NH2 [sC18, reference compound]
- cell viability (previous studies) (HT-29 cells [12]): did not cause any loss of cell viability
- intracellular distribution pattern (HEK-293 cells [1]): punctate uptake pattern
- cellular uptake at 1 µM (HT-29 cells [2]; 37 °C, OptiMEM): almost failed to internalize
- cellular uptake at 1 µM (HEK-293 cells [3]; 37 °C, OptiMEM): almost failed to internalize
- cellular uptake at 1 µM (MCF-7 cells [4]; 37 °C, OptiMEM): almost failed to internalize
- uptake into primary cells [7, 14]: hardly any detectable uptake
- cell viability (previous studies) (MCF-7 cells [13]): did not cause any loss of cell viability

Compound: I: KLAKLAKKLAKLAKGFLGLRKRLRKFRNKIKEK-NH2 / II: GLRKRLRKFRNKIKEK (amide I:21-II:C) [compound 4]
- IC50 (MCF-7 cells [9]): 3.6 ± 1.5 µM
- IC50 (HT-29 cells [10]): 14.3 ± 1.4 µM
